Test results as given in PubChem BioAssay (NCI).
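Dose response: 5 concentrations. Exposure: 48 h. Format: 96-well plates. Endpoint: linear interpolation; highest concentration if not reached. GI50 = concentration required for 50% inhibition of growth. TGI marks complete inhibition of growth.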

Columns and labels:
Assay in all cases: growth of human tumour cells (NCI), 48 h
SR leukemia = test system: SR leukemia
IGROV1 ovarian = test system: IGROV1 ovarian
NCI-H226 lung = test system: NCI-H226 lung
HCC-2998 colon = test system: HCC-2998 colon
SW-620 colon = test system: SW-620 colon
SK-MEL-2 melanoma = test system: SK-MEL-2 melanoma
M14 melanoma = test system: M14 melanoma
SK-MEL-28 melanoma = test system: SK-MEL-28 melanoma
SF-295 CNS = test system: SF-295 CNS
RXF 393 renal = test system: RXF 393 renal

| SMILES | GI50 (SR leukemia) | TGI (SR leukemia) | GI50 (IGROV1 ovarian) | TGI (IGROV1 ovarian) | GI50 (NCI-H226 lung) | TGI (NCI-H226 lung) | GI50 (HCC-2998 colon) | TGI (HCC-2998 colon) | GI50 (SW-620 colon) | TGI (SW-620 colon) | GI50 (SK-MEL-2 melanoma) | TGI (SK-MEL-2 melanoma) | GI50 (M14 melanoma) | TGI (M14 melanoma) | GI50 (SK-MEL-28 melanoma) | TGI (SK-MEL-28 melanoma) | GI50 (SF-295 CNS) | TGI (SF-295 CNS) | TGI (RXF 393 renal) | GI50 (RXF 393 renal) |
| --- | --- | --- | --- | --- | --- | --- | --- | --- | --- | --- | --- | --- | --- | --- | --- | --- | --- | --- | --- | --- |
| C/C(=N\n1c(N)c(C#N)c(-c2ccc(Cl)cc2)c(C#N)c1=O)c1cccnc1 | > 100 µM | > 100 µM | > 100 µM | > 100 µM | > 100 µM | > 100 µM | > 100 µM | > 100 µM | > 100 µM | > 100 µM | > 100 µM | > 100 µM | > 100 µM | > 100 µM | > 100 µM | > 100 µM | > 100 µM | > 100 µM | – | – |
| C(=C1/CCCCC([n+]2ccccc2)=N1)/c1ccccc1 | – | > 100 µM | – | – | – | > 100 µM | – | > 100 µM | – | > 100 µM | – | > 100 µM | – | > 100 µM | – | > 100 µM | – | > 100 µM | > 100 µM | – |
| C[P+](C)(CC(F)(F)F)c1ccccc1 | – | > 100 µM | – | > 100 µM | – | > 100 µM | – | > 100 µM | – | > 100 µM | – | > 100 µM | – | > 100 µM | – | – | – | > 100 µM | > 100 µM | – |
| C[Si](C)(C)[C@@]1([Se]c2ccccc2)CC[C@@H]1C(=O)c1ccccc1 | – | – | – | > 100 µM | – | > 100 µM | – | > 100 µM | – | > 100 µM | – | > 100 µM | – | > 100 µM | – | > 100 µM | – | > 100 µM | > 100 µM | – |
| O=C1CCC(c2ccccc2)(c2ccccc2)CC1 | – | > 100 µM | – | > 100 µM | – | > 100 µM | – | – | – | > 100 µM | – | > 100 µM | – | > 100 µM | – | > 100 µM | – | > 100 µM | > 100 µM | – |
| O=C(O)c1oc2ccc([N+](=O)[O-])c3c2c1CCC3 | – | – | – | – | – | > 100 µM | – | > 100 µM | – | > 100 µM | – | > 100 µM | – | > 100 µM | – | > 100 µM | – | > 100 µM | > 100 µM | – |
| Cc1cc(Br)cc(C)c1NC(=O)C(=O)C(C(=O)c1ccc(Cl)c(Cl)c1)C1OC(=O)c2ccccc21 (configuration not stated) | – | > 100 µM | – | > 100 µM | – | > 100 µM | – | > 100 µM | – | > 100 µM | – | > 100 µM | – | > 100 µM | – | – | – | > 100 µM | > 100 µM | – |
| Nc1ccccc1C#Cc1ccccc1C#CCCCCO | – | – | 17.5 µM | 46.7 µM | 27.4 µM | 61.3 µM | 14.6 µM | 30.1 µM | 25.1 µM | 77.3 µM | 28.4 µM | > 100 µM | 17.1 µM | 36.2 µM | 28.4 µM | 49.7 µM | 29.2 µM | 81.2 µM | 26.1 µM | 5.73 µM |
| COCCOC(=O)CCn1cc(F)c(=O)[nH]c1=O | 2.97 mg/L | > 150 mg/L | 7.36 mg/L | > 150 mg/L | 119 mg/L | > 150 mg/L | – | – | 26.9 mg/L | > 150 mg/L | > 150 mg/L | > 150 mg/L | 8.38 mg/L | > 150 mg/L | 31.7 mg/L | > 150 mg/L | 33.2 mg/L | > 150 mg/L | > 150 mg/L | 13.8 mg/L |
| N#CCc1nc2c(s1)C(=O)c1ccccc1C2=O | – | – | – | 17.3 µM | – | 37.8 µM | – | 38 µM | – | 34.8 µM | – | 35.6 µM | – | 28.5 µM | – | 32.8 µM | – | 34.5 µM | 49.4 µM | – |
| COc1cc(SC)ccc1C(=O)N1CCCC(C)C1 (configuration not stated) | > 100 µM | > 100 µM | > 100 µM | > 100 µM | 80.4 µM | > 100 µM | > 100 µM | > 100 µM | > 100 µM | > 100 µM | > 100 µM | > 100 µM | > 100 µM | > 100 µM | > 100 µM | > 100 µM | > 100 µM | > 100 µM | – | – |
| Cc1ccc(C)c2sc3cc(=O)ccc-3nc12 | – | > 100 µM | – | > 100 µM | – | > 100 µM | – | > 100 µM | – | > 100 µM | – | > 100 µM | – | 42.7 µM | – | > 100 µM | – | > 100 µM | – | – |
| COS(=O)CCOC(=O)c1ccccc1SSc1ccccc1C(=O)OCCS(=O)OC (configuration not stated) | – | – | – | > 100 µM | – | – | – | – | – | 87.4 µM | – | > 100 µM | – | 57.8 µM | – | > 100 µM | – | > 100 µM | 28 µM | – |
| COc1ccc2c(c1)[n+]([O-])c(-c1ccc(Cl)c(Cl)c1)c(N)[n+]2[O-] | – | > 100 µM | – | 93.2 µM | – | > 100 µM | – | – | – | > 100 µM | – | > 100 µM | – | 72.2 µM | – | > 100 µM | – | > 100 µM | – | – |
| COc1cc([N+](=O)[O-])c2ncccc2c1O | 20.6 µM | > 100 µM | 4.51 µM | 25.5 µM | 2.01 µM | 6.27 µM | – | – | 4.07 µM | > 100 µM | 9.91 µM | 52.4 µM | 1.45 µM | 3.02 µM | 2.77 µM | 7.78 µM | 2.29 µM | 6.77 µM | 30.1 µM | 10.6 µM |
| C=C(C)[C@@H]1CC[C@]2(C#N)CC[C@]3(C)[C@H](CC[C@@H]4[C@@]5(C)CCCNC(C)(C)[C@@H]5CC[C@]43C)[C@@H]12 | – | – | 1.82 µM | 3.47 µM | 2.61 µM | 9.79 µM | 1.8 µM | 3.24 µM | 1.77 µM | 3.42 µM | 2.1 µM | 3.94 µM | 1.83 µM | 3.49 µM | 1.92 µM | 3.5 µM | 1.7 µM | 3.1 µM | 3.16 µM | 1.7 µM |
| COc1cc(Nc2ncc(-c3ccccc3)o2)cc(OC)c1OC | – | – | 1.28 µM | > 25 µM | 2.97 µM | > 25 µM | 5.08 µM | > 25 µM | 0.986 µM | > 25 µM | 1.52 µM | > 11.6 µM | 1.26 µM | > 25 µM | 4.38 µM | > 25 µM | 2.7 µM | > 25 µM | 17.4 µM | 0.77 µM |
